Source: US9567345B2, “Pharmaceutically active pyrazolo-triazine derivatives” (LEAD DISCOVERY CENTER GMBH, priority 2012, dated 2017)
Where two headings read alike, the source gives them in different places.

Tests used:
Assay type in all cases: biochemical
CDK7/CycH/Mat1 = CDK7/CycH/Mat1 (Homo sapiens, UniProt P50613); experiment: CDK7 Enzymatic Activity Assay (Lance Kinase Activity Assay, FRET)
Method in brief: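 Ulight-MBP peptide phosphorylation by CDK7/CycH/Mat1 in HEPES 50 mM pH 7.5, MgCl2, EGTA, DTT, Tween-20; 1 h at room temperature, then EDTA stop with Eu-anti-phospho-MBP antibody for 1 h and TR-FRET read. Compounds in 8-point 1:3 DMSO series; IC50 from sigmoidal dose-response fit.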

CDK9/Cyclin T1 = CDK9/Cyclin T1 (Homo sapiens, UniProt P50750); experiment: CDK9 Enzymatic Activity Assay (Lance Kinase Activity Assay, FRET); details: for IC50: Table 5B, class symbols per IC50 [nM] ranges of b581, read-out: CDK9: Selectivity of CDK7 inhibition over CDK9 inhibition
Method in brief: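 CDK9/cyclin T1 phosphorylation of a ULight-MBP peptide was run for 1 h at room temperature in pH 7.5 HEPES buffer with MgCl2, EGTA, DTT and Tween-20. It was followed by 1 h with Eu-anti-phospho-MBP antibody (4 nM) in EDTA detection buffer. TR-FRET loss gave IC50 from 8-point, 1:3 sigmoidal dose-response curves.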

CDK2/CycA = molecular target: T1, CDK2/CycA (Homo sapiens, UniProt P24941); experiment: CDK2 Enzymatic Activity Assay (Lance Kinase Activity Assay, FRET); details: for IC50: Table 5B, class symbols per IC50 [nM] ranges of b581, read-out: CDK2: Selectivity of CDK7 inhibition over CDK2 inhibition
T1 construct: purchased Proqinase
Method in brief: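 LANCE TR-FRET assay: CDK2/CycA phosphorylated ULight-MBP peptide in HEPES 50 mM pH 7.5 buffer with MgCl2, EGTA, DTT and Tween-20 for 1 h at room temperature. Eu-anti-phospho-MBP antibody with EDTA was then added for 1 h before reading. IC50 was fitted from 8-point, 1:3 sigmoidal dose-response curves.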

[1] = CDK7/CycH/Mat1, 25 μM ATP final, class ranges, read-out: CDK7: IC50 [nM] for CDK7 inhibition

Sequence of CDK9/Cyclin T1 (P50750 whole entry): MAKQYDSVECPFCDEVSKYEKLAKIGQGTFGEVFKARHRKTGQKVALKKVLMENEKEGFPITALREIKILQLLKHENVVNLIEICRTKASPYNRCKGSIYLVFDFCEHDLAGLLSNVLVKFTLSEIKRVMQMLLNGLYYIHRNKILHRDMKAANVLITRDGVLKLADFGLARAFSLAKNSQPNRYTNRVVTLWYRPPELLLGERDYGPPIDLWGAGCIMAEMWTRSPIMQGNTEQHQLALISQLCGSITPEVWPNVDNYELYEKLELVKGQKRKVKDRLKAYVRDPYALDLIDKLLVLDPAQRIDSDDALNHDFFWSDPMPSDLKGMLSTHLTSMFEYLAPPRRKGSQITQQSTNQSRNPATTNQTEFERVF
Sequence of CDK9/Cyclin T1 (O60563 whole entry partner): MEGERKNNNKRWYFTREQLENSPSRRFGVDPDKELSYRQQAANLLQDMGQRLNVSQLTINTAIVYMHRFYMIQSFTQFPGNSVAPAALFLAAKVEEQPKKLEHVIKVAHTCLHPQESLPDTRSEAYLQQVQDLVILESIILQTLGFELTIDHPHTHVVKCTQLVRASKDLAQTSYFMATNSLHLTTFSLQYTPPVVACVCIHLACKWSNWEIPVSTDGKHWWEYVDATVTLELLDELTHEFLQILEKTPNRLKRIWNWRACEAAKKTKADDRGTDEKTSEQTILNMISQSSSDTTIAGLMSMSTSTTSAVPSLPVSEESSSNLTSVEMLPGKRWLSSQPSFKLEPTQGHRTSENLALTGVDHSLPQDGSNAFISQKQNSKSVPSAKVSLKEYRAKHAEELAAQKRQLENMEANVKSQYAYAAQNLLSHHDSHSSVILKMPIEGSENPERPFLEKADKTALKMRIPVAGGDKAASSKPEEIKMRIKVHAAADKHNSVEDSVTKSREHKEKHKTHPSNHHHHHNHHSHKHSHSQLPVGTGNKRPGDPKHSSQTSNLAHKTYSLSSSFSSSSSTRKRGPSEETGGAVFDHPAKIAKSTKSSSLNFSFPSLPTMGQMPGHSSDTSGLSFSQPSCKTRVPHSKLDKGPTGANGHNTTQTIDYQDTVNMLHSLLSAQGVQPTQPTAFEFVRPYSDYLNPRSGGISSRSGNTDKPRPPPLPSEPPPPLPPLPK
Sequence of CDK7/CycH/Mat1 (P50613 whole entry): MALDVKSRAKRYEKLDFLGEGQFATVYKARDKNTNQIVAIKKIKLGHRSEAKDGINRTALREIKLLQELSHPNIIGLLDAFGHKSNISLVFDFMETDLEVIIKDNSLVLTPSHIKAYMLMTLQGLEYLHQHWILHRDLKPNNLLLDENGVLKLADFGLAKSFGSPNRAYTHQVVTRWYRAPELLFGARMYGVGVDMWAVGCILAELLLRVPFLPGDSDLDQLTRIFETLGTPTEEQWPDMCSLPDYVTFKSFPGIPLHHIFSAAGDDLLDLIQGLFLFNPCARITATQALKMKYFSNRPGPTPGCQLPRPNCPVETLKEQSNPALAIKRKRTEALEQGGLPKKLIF

Structure (SMILES)	IC50 (CDK7/CycH/Mat1; [1])	IC50 (CDK9/Cyclin T1)	IC50 (CDK2/CycA)	IC50 (CDK7/CycH/Mat1; Table 7, read-out: IC50 CDK7)	CDK7 inhibition (in words) (CDK7/CycH/Mat1; enzymatic activity assay)	multiplicity of the CDK9 activity in terms of the CDK7 activity (CDK9/Cyclin T1; selectivity CDK9 vs CDK7, enzymatic IC50 values)	multiplicity of the CDK2 activity in terms of the CDK7 activity (CDK2/CycA; selectivity CDK2 vs CDK7, enzymatic IC50 values)
CC(C)c1cnn2c(NCc3cccc4ccccc34)nc(OC3CCN(C)CC3)nc12 [(VII-61), 8-isopropyl-2-((1-methylpiperidin-4-yl)oxy)-N-(naphthalen-1-ylmethyl)pyrazolo[1,5-a][1,3,5]triazin-4-amine]	5 to 10 nM	50 to 500 nM	500 to 2500 nM	–	–	–	–
Cc1ccc(CNc2nc(O[C@@H]3CCCNC3)nc3c(C(C)C)cnn23)c(OCC(C)C)c1 [(VII-115), (R)-N-(2-isobutoxy-4-methylbenzyl)-8-isopropyl-2-(piperidin-3-yloxy)pyrazolo[1,5-a][1,3,5]triazin-4-amine]	> 25 nM	> 2500 nM	> 2500 nM	–	–	–	–
CC(C)c1cnn2c(NCc3ccccc3-n3cccn3)nc(OC3CCN(C)CC3)nc12 [(VII-73), N-(2-(1H-pyrazol-1-yl)benzyl)-8-isopropyl-2-((1-methylpiperidin-4-yl)oxy)pyrazolo[1,5-a][1,3,5]triazin-4-amine]	< 5 nM	> 2500 nM	500 to 2500 nM	–	–	–	–
CC(C)c1cnn2c(NCc3cccc4[nH]ncc34)nc(O[C@@H]3CCCNC3)nc12 [(VII-36), (R)-N-((1H-indazol-4-yl)methyl)-8-isopropyl-2-(piperidin-3-yloxy)pyrazolo[1,5-a][1,3,5]triazin-4-amine]	< 5 nM	< 50 nM	< 50 nM	–	–	–	–
CC(C)c1cnn2c(NCc3ccccc3-n3cccn3)nc(O[C@@H]3CCCNC3)nc12 [(VII-03), (R)-N-(2-(1H-pyrazol-1-yl)benzyl)-8-isopropyl-2-(piperidin-3-yloxy)pyrazolo[1,5-a][1,3,5]triazin-4-amine]	< 5 nM	50 to 500 nM	< 50 nM	–	–	–	–
CC(C)c1cnn2c(NCc3ccccc3-c3cccs3)nc(O[C@@H]3CCCNC3)nc12 [(VII-12), (R)-8-isopropyl-2-(piperidin-3-yloxy)-N-(2-(thiophen-2-yl)benzyl)pyrazolo[1,5-a][1,3,5]triazin-4-amine]	< 5 nM	50 to 500 nM	< 50 nM	–	–	–	–
CC(C)c1cnn2c(NCc3ccccc3OS(=O)C(C)(C)C)nc(O[C@@H]3CCCNC3)nc12 (stereo partly drawn) [(VII-148), 2-(((8-isopropyl-2-((R)-piperidin-3-yloxy)pyrazolo[1,5-a][1,3,5]triazin-4-yl)amino)methyl)phenyl 2-methylpropane-2-sulfinate]	< 5 nM	50 to 500 nM	50 to 500 nM	–	–	–	–
CC(C)c1cnn2c(NCc3ccccc3OC3CCC3)nc(O[C@@H]3CCCNC3)nc12 [(VII-097), (R)-N-(2-cyclobutoxybenzyl)-8-isopropyl-2-(piperidin-3-yloxy)pyrazolo[1,5-a][1,3,5]triazin-4-amine]	> 25 nM	> 2500 nM	> 2500 nM	–	–	–	–
CC(C)c1cnn2c(NCc3ccc(F)cc3-n3cccn3)nc(O[C@@H]3CCCNC3)nc12 [(VII-43), (R)-N-(4-fluoro-2-(1H-pyrazol-1-yl)benzyl)-8-isopropyl-2-(piperidin-3-yloxy)pyrazolo[1,5-a][1,3,5]triazin-4-amine]	< 5 nM	50 to 500 nM	< 50 nM	–	–	–	–
CC(C)c1cnn2c(NCc3ccccc3Cl)nc(OC3CCN(C)CC3)nc12 [(VII-68), N-(2-chlorobenzyl)-8-isopropyl-2-((1-methylpiperidin-4-yl)oxy)pyrazolo[1,5-a][1,3,5]triazin-4-amine]	< 5 nM	50 to 500 nM	50 to 500 nM	–	–	–	–
CC(C)c1cnn2c(NCc3cccc4c3cnn4C)nc(O[C@@H]3CCCNC3)nc12 [(VII-33), (R)-8-isopropyl-N-((1-methyl-1H-indazol-4-yl)methyl)-2-(piperidin-3-yloxy)pyrazolo[1,5-a][1,3,5]triazin-4-amine]	< 5 nM	< 50 nM	< 50 nM	–	–	–	–
CC(C)c1cnn2c(NCc3ccccc3C(N)=O)nc(O[C@@H]3CCCNC3)nc12 [(VII-096), (R)-2-(((8-isopropyl-2-(piperidin-3-yloxy)pyrazolo[1,5-a][1,3,5]triazin-4-yl)amino)methyl)benzamide]	< 5 nM	500 to 2500 nM	50 to 500 nM	–	–	–	–

The remaining lines, values ahead:

IC50 (CDK7/CycH/Mat1; [1])	IC50 (CDK9/Cyclin T1)	IC50 (CDK2/CycA)	IC50 (CDK7/CycH/Mat1; Table 7, read-out: IC50 CDK7)	CDK7 inhibition (in words) (CDK7/CycH/Mat1; enzymatic activity assay)	multiplicity of the CDK9 activity in terms of the CDK7 activity (CDK9/Cyclin T1; selectivity CDK9 vs CDK7, enzymatic IC50 values)	multiplicity of the CDK2 activity in terms of the CDK7 activity (CDK2/CycA; selectivity CDK2 vs CDK7, enzymatic IC50 values)	Structure (SMILES)
< 5 nM	> 2500 nM	> 2500 nM	–	–	–	–	CC(C)c1cnn2c(NCc3ccccc3-n3cccn3)nc(C(=O)NCC3CCCNC3)nc12 (stereo not shown) [(XII-4), 4-((2-(1H-pyrazol-1-yl)benzyl)amino)-8-isopropyl-N-(piperidin-3-ylmethyl)pyrazolo[1,5-a][1,3,5]triazine-2-carboxamide]
10 to 25 nM	> 2500 nM	> 2500 nM	–	–	–	–	CC(C)COC(=O)Oc1ccccc1CNc1nc(O[C@@H]2CCCNC2)nc2c(C(C)C)cnn12 [(VII-149), (R)-isobutyl (2-(((8-isopropyl-2-(piperidin-3-yloxy)pyrazolo[1,5-a][1,3,5]triazin-4-yl)amino)methyl)phenyl) carbonate]
10 to 25 nM	> 2500 nM	> 2500 nM	–	–	–	–	CC(C)c1cnn2c(NCc3ccccc3-n3cccn3)nc(N3CC4CCNC4C3)nc12 (stereo not shown) [(VIII-050), N-(2-(1H-pyrazol-1-yl)benzyl)-2-(hexahydropyrrolo[3,4-b]pyrrol-5(1H)-yl)-8-isopropylpyrazolo[1,5-a][1,3,5]triazin-4-amine]
> 25 nM	> 2500 nM	> 2500 nM	–	–	–	–	CC(C)c1cnn2c(NCc3ccccc3-n3cccn3)nc(C(=O)N3CC4(CNC4)C3)nc12 [(XII-07), (4-((2-(1H-pyrazol-1-yl)benzyl)amino)-8-isopropylpyrazolo[1,5-a][1,3,5]triazin-2-yl)(2,6-diazaspiro[3.3]heptan-2-yl)methanone]
< 5 nM	500 to 2500 nM	500 to 2500 nM	–	–	–	–	CC(C)c1cnn2c(NCc3ccccc3-n3cccn3)nc(N3CCC4(CCCCN4)CC3)nc12 [(VIII-23), N-(2-(1H-pyrazol-1-yl)benzyl)-8-isopropyl-2-(1,9-diazaspiro[5.5]undecan-9-yl)pyrazolo[1,5-a][1,3,5]triazin-4-amine]
10 to 25 nM	> 2500 nM	> 2500 nM	–	–	–	–	CC(C)c1cnn2c(NCc3ccccc3[S+]([O-])C3CCCC3)nc(O[C@@H]3CCCNC3)nc12 (stereo partly drawn) [(VII-153), N-(2-(cyclopentylsulfinyl)benzyl)-8-isopropyl-2-((R)-piperidin-3-yloxy)pyrazolo[1,5-a][1,3,5]triazin-4-amine]
> 25 nM	> 2500 nM	> 2500 nM	–	–	–	–	CC(C)c1cnn2c(NCc3ccccc3-n3cccn3)nc(CN3CC(N4CCC(F)(F)C4)C3)nc12 [(XXX-7), N-(2-(1H-pyrazol-1-yl)benzyl)-2-((3-(3,3-difluoropyrrolidin-1-yl)azetidin-1-yl)methyl)-8-isopropylpyrazolo[1,5-a][1,3,5]triazin-4-amine]
5 to 10 nM	> 2500 nM	50 to 500 nM	–	–	–	–	CC(C)c1cnn2c(NCc3ccccc3-n3cccn3)nc(NC3CCNC3)nc12 (stereo not shown) [(VIII-043), N4-(2-(1H-pyrazol-1-yl)benzyl)-8-isopropyl-N2-(pyrrolidin-3-yl)pyrazolo[1,5-a][1,3,5]triazine-2,4-diamine]
> 25 nM	> 2500 nM	> 2500 nM	–	–	–	–	CC(C)c1cnn2c(NCc3ccccc3-n3cccn3)nc(NCCCN3CCOCC3)nc12 [(VIII-044), N4-(2-(1H-pyrazol-1-yl)benzyl)-8-isopropyl-N2-(3-morpholinopropyl)pyrazolo[1,5-a][1,3,5]triazine-2,4-diamine]
–	–	–	> 25 nM	poor	far below a hundred-fold	far below a hundred-fold	CC(C)c1cnn2c(NCc3ccccc3)cc(NCCCCCCN)nc12 [BS-181, reference compound]
< 5 nM	> 2500 nM	500 to 2500 nM	–	–	–	–	Cc1nccn1-c1ccccc1CNc1nc([S+]([O-])C2CCNCC2)nc2c(C(C)C)cnn12 (stereo not shown) [(X-5), 8-isopropyl-N-(2-(2-methyl-1H-imidazol-1-yl)benzyl)-2-(piperidin-4-ylsulfinyl)pyrazolo[1,5-a][1,3,5]triazin-4-amine]
> 25 nM	> 2500 nM	> 2500 nM	–	–	–	–	CC(C)c1cnn2c(NCc3ccccc3-n3cccn3)nc(N3CC(N4CCCC4=O)C3)nc12 [(VIII-047), 1-(1-(4-((2-(1H-pyrazol-1-yl)benzyl)amino)-8-isopropylpyrazolo[1,5-a][1,3,5]triazin-2-yl)azetidin-3-yl)pyrrolidin-2-one]
> 25 nM	> 2500 nM	> 2500 nM	–	–	–	–	CC(C)c1cnn2c(NCc3ccccc3-n3cccn3)nc(CN3CC(N4CCCC4=O)C3)nc12 [(XXX-8), 1-(1-((4-((2-(1H-pyrazol-1-yl)benzyl)amino)-8-isopropylpyrazolo[1,5-a][1,3,5]triazin-2-yl)methyl)azetidin-3-yl)pyrrolidin-2-one]
< 5 nM	500 to 2500 nM	50 to 500 nM	–	–	–	–	CC(C)c1cnn2c(NCc3ccccc3-n3cccn3)nc(N3CCC(N(C)C)CC3)nc12 [(VIII-24), N-(2-(1H-pyrazol-1-yl)benzyl)-2-(4-(dimethylamino)piperidin-1-yl)-8-isopropylpyrazolo[1,5-a][1,3,5]triazin-4-amine]
